According to patent EP4596574A1, “GLP-1/GCG/GIP TRIPLE-RECEPTOR AGONIST AND USE THEREOF” (Sunshine Lake Pharma Co., Ltd., priority 2022, dated 2024):
Marks after values point to notes of the source that are not given here.

Legend:
GLP-1R = target: T1, GLP-1R (Homo sapiens, UniProt P43220); assay: In vitro cell activity, cAMP production in HEK293 cells expressing GLP-1R; format: cell-based
T1 construct: expressed in transfected cells; host or cells: HEK293 (HEK293-GLP-1R)
Summary of the method: (§1)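 cAMP output read as 665/620 nm HTRF ratio after adding cAMP-d2 plus anti-cAMP cryptate and incubating 1 h at room temperature in the dark or overnight at 4 °C. Cells: HEK293 expressing human GLP-1R or GCGR, plated from a 4×10^5 cells/mL suspension. Four-parameter fit gives EC50.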

GCGR = target: T2, GCGR (Homo sapiens, UniProt P47871); assay: In vitro cell activity, cAMP production in HEK293 cells expressing GCGR; format: cell-based
T2 construct: expressed in transfected cells; host or cells: HEK293 (HEK293-GCGR)
Summary of the method: as §1

GIPR = target: T3, GIPR (Homo sapiens, UniProt P48546); assay: In vitro cell activity, cAMP production in HEK293 cells expressing GIPR; format: cell-based
T3 construct: expressed in transfected cells; host or cells: HEK293 (HEK293-GIPR)
T3 sequence (P48546 22-466): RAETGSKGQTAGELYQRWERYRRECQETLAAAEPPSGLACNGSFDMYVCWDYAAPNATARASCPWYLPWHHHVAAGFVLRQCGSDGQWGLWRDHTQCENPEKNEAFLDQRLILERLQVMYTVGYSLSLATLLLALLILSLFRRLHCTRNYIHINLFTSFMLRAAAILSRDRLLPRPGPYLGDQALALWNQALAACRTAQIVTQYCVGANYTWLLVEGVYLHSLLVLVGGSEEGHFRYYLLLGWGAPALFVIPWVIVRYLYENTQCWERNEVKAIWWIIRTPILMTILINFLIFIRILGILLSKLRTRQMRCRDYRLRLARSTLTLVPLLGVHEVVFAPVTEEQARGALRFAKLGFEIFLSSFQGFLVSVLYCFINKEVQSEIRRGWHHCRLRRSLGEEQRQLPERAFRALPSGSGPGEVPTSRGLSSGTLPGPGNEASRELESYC
Summary of the method: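 HEK293 cells expressing human GIPR, thawed and diluted to 4×10^5 cells/mL, are stimulated with test compound. cAMP is measured by HTRF competition between cAMP-d2 and anti-cAMP cryptate. EC50 comes from a four-parameter nonlinear fit of signal ratio against concentration.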

[1] = In vivo efficacy evaluation in db/db mouse model (blood glucose); set-up: species or system db/db mice
Description: Blood glucose was tested before each administration.

[2] = Long-term repeated administration in diet-induced obese C57BL/6 mice (DIO); format: in vivo, C57/BL6 mice
[3] = 10 nmol/kg s.c. once every 3 days, D7
[4] = 10 nmol/kg s.c. once every 3 days, D10
[5] = 10 nmol/kg s.c. once every 3 days, D13
[6] = 10 nmol/kg s.c. once every 3 days, D16
[7] = 10 nmol/kg s.c. once every 3 days, D19
[8] = 10 nmol/kg s.c. once every 3 days, D22
[9] = 10 nmol/kg s.c. once every 3 days, D25
[10] = 10 nmol/kg s.c. once every 3 days, D28
[11] = after 4 weeks of administration
[12] = after 4 weeks of administration, same dose
[13] = long-term administration 10 nmol/kg, 72 h after the last administration
[14] = long-term administration 10 nmol/kg, blood biochemical index

T2 sequence (P47871 26-477, species assumed): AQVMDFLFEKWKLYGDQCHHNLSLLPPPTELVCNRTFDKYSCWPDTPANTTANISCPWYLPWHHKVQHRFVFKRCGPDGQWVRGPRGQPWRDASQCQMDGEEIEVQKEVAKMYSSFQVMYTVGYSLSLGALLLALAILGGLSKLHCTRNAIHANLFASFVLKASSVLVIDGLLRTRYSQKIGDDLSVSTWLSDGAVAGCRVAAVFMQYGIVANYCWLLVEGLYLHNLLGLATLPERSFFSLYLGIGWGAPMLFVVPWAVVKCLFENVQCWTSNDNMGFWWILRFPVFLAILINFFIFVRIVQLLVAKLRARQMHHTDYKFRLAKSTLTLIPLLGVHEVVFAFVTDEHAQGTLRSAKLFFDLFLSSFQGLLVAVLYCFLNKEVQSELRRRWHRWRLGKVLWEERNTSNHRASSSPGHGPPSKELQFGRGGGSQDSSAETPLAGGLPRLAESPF
T1 sequence (P43220 24-463, species assumed): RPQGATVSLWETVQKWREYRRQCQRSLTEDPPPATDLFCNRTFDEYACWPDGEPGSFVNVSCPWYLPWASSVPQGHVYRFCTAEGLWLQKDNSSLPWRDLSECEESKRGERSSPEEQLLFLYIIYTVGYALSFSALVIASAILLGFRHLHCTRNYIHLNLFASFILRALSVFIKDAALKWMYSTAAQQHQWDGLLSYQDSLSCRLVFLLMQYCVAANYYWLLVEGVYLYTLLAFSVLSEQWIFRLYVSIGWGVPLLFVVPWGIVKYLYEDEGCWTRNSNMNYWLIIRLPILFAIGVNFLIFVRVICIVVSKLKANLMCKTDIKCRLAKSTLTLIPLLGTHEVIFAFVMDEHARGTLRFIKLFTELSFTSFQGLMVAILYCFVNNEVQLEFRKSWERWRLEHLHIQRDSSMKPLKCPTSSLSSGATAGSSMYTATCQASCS

## CC[C@H](C)[C@H](NC(=O)[C@H](Cc1ccccc1)NC(=O)[C@H](CCC(=O)O)NC(=O)[C@H](CCCNC(=N)N)NC(=O)[C@H](CCC(N)=O)NC(=O)[C@H](CCCNC(=N)N)NC(=O)[C@H](CCCCNC(=O)COCCOCCNC(=O)CC[C@H](NC(=O)CCCCCCCCCCCCCCCCC(=O)O)C(=O)O)NC(=O)[C@H](CCC(=O)O)NC(=O)[C@H](CC(=O)O)NC(=O)[C@H](CC(C)C)NC(=O)[C@H](CC(C)C)NC(=O)[C@@H](NC(=O)[C@H](CO)NC(=O)[C@H](Cc1ccc(O)cc1)NC(=O)[C@H](CC(=O)O)NC(=O)[C@H](CO)NC(=O)[C@@H](NC(=O)[C@](C)(Cc1ccccc1F)NC(=O)[C@@H](NC(=O)CNC(=O)[C@H](Cc1c[nH]cn1)NC(=O)C(C)(C)NC(=O)[C@@H](N)Cc1ccc(O)cc1)[C@@H](C)O)[C@@H](C)O)[C@@H](C)CC)C(=O)N[C@@H](CCC(=O)O)C(=O)N[C@@H](Cc1c[nH]c2ccccc12)C(=O)N[C@@H](CC(C)C)C(=O)N[C@@H](CC(C)C)C(=O)N[C@@H](C)C(=O)NCC(=O)NCC(=O)N1CCC[C@H]1C(=O)N[C@@H](CO)C(=O)N[C@@H](CO)C(=O)NCC(=O)N[C@@H](C)C(=O)N1CCC[C@H]1C(=O)N1CCC[C@H]1C(=O)N1CCC[C@H]1C(=O)N[C@@H](CO)C(=O)O [HEC-PT77]
GLP-1R
  EC50: 0.0656 nM
GCGR
  EC50: 0.144 nM
GIPR
  EC50: 0.0227 nM
[1]; db/db mice, 10 nmol/kg
  blood glucose after administration: significantly reduce blood glucose
[1]; db/db mice, 10 nmol/kg s.c. once every three days, D0 (before first dose)
  Random blood glucose (mM) D0: 26.6 ± 4.2 mM
[1]; db/db mice, 10 nmol/kg s.c. once every three days, D3
  Random blood glucose (mM) D3: 15.8 ± 4.0 mM
[1]; db/db mice, 10 nmol/kg s.c. once every three days, D4
  Random blood glucose (mM) D4: 17.8 ± 5.9 mM
[1]; db/db mice, 10 nmol/kg s.c. once every three days, D5
  Random blood glucose (mM) D5: 21.5 ± 5.6 mM
[1]; db/db mice, 10 nmol/kg s.c. once every three days, D6
  Random blood glucose (mM) D6: 24.1 ± 4.6 mM
[1]; db/db mice, 10 nmol/kg s.c. once every three days, D7
  Random blood glucose (mM) D7: 21.9 ± 3.9 mM
[1]; db/db mice, 10 nmol/kg s.c. once every three days, D10
  Random blood glucose (mM) D10: 13.4 ± 5.4 mM
[1]; db/db mice, 10 nmol/kg s.c. once every three days, D13
  Random blood glucose (mM) D13: 15.7 ± 5.4 mM
[1]; db/db mice, 10 nmol/kg s.c. once every three days, D16
  Random blood glucose (mM) D16: 12.7 ± 6.1 mM
[1]; db/db mice, 10 nmol/kg s.c. once every three days, D19
  Random blood glucose (mM) D19: 15.5 ± 4.6 mM
[1]; db/db mice, 10 nmol/kg s.c. once every three days, D22
  Random blood glucose (mM) D22: 15.6 ± 6.1 mM
[1]; db/db mice, 10 nmol/kg s.c. once every three days, D25
  Random blood glucose (mM) D25: 14.2±5.1^a mM
[1]; db/db mice, 10 nmol/kg s.c., 6 h
  Random blood glucose (mM) 6 h: 15.9 ± 5.9 mM
[1]; db/db mice, 10 nmol/kg s.c., 24 h
  Random blood glucose (mM) 24 h: 8.1 ± 4.5 mM
[1]; db/db mice, 10 nmol/kg s.c., 48 h
  Random blood glucose (mM) 48 h: 11.1 ± 6.2 mM
[1]; db/db mice, 10 nmol/kg, after administration
  time at which blood glucose levels reached the lowest level: about 24 hours
[1]; db/db mice, long-term repeated administration
  blood glucose lowering after long-term administration compared with LY3298176: not inferior to the positive control LY3298176
[1]; db/db mice, same dose 10 nmol/kg
  blood glucose reducing effect after administration compared with LY3298176: slightly better than the positive control LY3298176
[1]; type II diabetes model db/db mice
  blood glucose level after long-term administration: significantly improve the blood glucose level
[2]; [3]
  Cumulative food intake (g/pcs) D7: 8.7 g/pcs
  Weight gain rate (%) D7: -14.9±3.8%
[2]; [4]
  Cumulative food intake (g/pcs) D10: 11.4 g/pcs
  Weight gain rate (%) D10: -20.9±4.0%
[2]; [5]
  Cumulative food intake (g/each) D13: 14.4 g/each
  Weight gain rate (%) D13: -24.7±5.5%
[2]; [6]
  Cumulative food intake (g/each) D16: 19.1 g/each
  Weight gain rate (%) D16: -26.6±5.6%
[2]; [7]
  Cumulative food intake (g/each) D19: 24.7 g/each
  Weight gain rate (%) D19: -27.7±5.5%
[2]; [8]
  Cumulative food intake (g/each) D22: 30.6 g/each
  Weight gain rate (%) D22: -28.9±6.4%
[2]; [9]
  Cumulative food intake (g/each) D25: 36.7 g/each
  Weight gain rate (%) D25: -31.2±6.9%
[2]; [10]
  Cumulative food intake (g/each) D28: 43.7 g/each
  Weight gain rate (%) D28: -30.4±5.2%
[2]; 10 nmol/kg s.c. once every 3 days, D30
  Cumulative food intake (g/each) D30: 47.5^a g/each
[2]; 10 nmol/kg s.c. once every 3 days, D31
  Weight gain rate (%) D31: -30.2±4.9^a %
[2]; 10 nmol/kg s.c., D0
  Cumulative food intake (g/pcs) D0: 2.4 g/pcs
  Weight gain rate (%) D0: 0.0±0.0%
[2]; 10 nmol/kg s.c., D1
  Cumulative food intake (g/pcs) D1: 2.8 g/pcs
  Weight gain rate (%) D1: -5.5±0.7%
[2]; 10 nmol/kg s.c., D2
  Cumulative food intake (g/pcs) D2: 3.6 g/pcs
  Weight gain rate (%) D2: -7.7±1.9%
[2]; 10 nmol/kg s.c., D3
  Cumulative food intake (g/pcs) D3: 4.7 g/pcs
  Weight gain rate (%) D3: -8.4±0.9%
[2]; 10 nmol/kg s.c., D4
  Cumulative food intake (g/pcs) D4: 6.3 g/pcs
  Weight gain rate (%) D4: -7.1±3.5%
[2]; [11]
  liver function and blood lipids of DIO mice: significantly improved the liver function and blood lipids
  weight loss and food intake inhibition effects compared with Semaglutide: superior to the positive drug Semaglutide
[2]; [12]
  food intake inhibition effect compared with LY3298176: comparable to those of the same dose of the positive drug LY3298176
  weight loss effect compared with LY3298176: comparable to those of the same dose of the positive drug LY3298176
[2]; [13]
  Liver index/%: 2.7±0.0^a %
  Liver/g: 0.9±0.1^a g
  Weight/g: 31.5±3.2^a g
[2]; [14]
  ALT (U/L): 29.1±5.8^a U/L
  AST (U/L): 112.0±20.9^a U/L
  CHOL (mmol/L): 3.2±0.5^a mmol/L
  TRIGL (mmol/L): 0.6±0.1^a mmol/L
